Source: patent US8445522B2, “Substituted 2-(4-pyridyl)benzoxazoles, and compositions thereof, for use in arthropod pest control” (Sumitomo Chemical Company, Limited, priority 2009, dated 2013)

Tests used:
Type in all cases: in vivo
rice brown planthopper [1] = assay: Test Example 6: plant foot irrigation of rice plant seedling, rice brown planthopper released after seven days; conditions: Nilaparvata lugens, 144 h; 500 ppm, 5 ml plant foot irrigation of rice seedling; first-instars released after seven days, counted six days after; read-out: Control value
Experimental: The formulations were diluted with water so that the concentration of the active ingredient became 500 ppm and thus test diluents were prepared. On the other hand, a plant foot of rice plant seedling (two weeks after seeding, second leaf development stage) planted in a plastic cup was irrigated with any one of diluents (5 ml). The seedling was kept in a green house of 25° C. for seven days. Thirty first-instars of rice brown planthopper were released to the seedling, which was kept in the green house at 25 C for six days. Thereafter, the number of survived rice brown planthopper parasitic on rice plant leaves was counted, and the control value was calculated by the following equation. Control value(%)={1−(Cb×Tai)/(Cai×Tb)}×100 wherein each character represents the following meaning: Cb: number of insects in non-treated section before treatment Cai: number of insects in non-treated section during observation Tb: number of insects in treated section before treatment Tai: number of insects in treated section during observation

rice brown planthopper [2] = assay: Test Example 5: test diluent scattered on rice plant seedling, rice brown planthopper released; conditions: Nilaparvata lugens, 144 h; 500 ppm, 10 ml scattered on rice plant seedling, 30 first-instars released, counted after six days at 25° C.; read-out: Control value
Experimental: The formulations were diluted with water so that the concentration of the active ingredient became 500 ppm and thus test diluents were prepared. On the other hand, to a rice plant seedling (two weeks after seeding, second leaf development stage) planted in a plastic cup, any one of the diluents (10 ml) was scattered. After the drug solution scattered on the rice plant was dried, 30 first-instars of rice brown planthopper were released on the rice plant, which was kept in the green house at 25° C. for six days. Thereafter, the number of rice brown planthopper parasitic on rice plant was counted and the control value was calculated by the following equation. Control value(%)={1−(Cb×Tai)/(Cai×Tb)}×100 wherein each character represents the following meaning: Cb: number of insects in non-treated section before treatment Cai: number of insects in non-treated section during observation Tb: number of insects in treated section before treatment Tai: number of insects in treated section during observation

cotton aphids [3] = assay: Test Example 3: plant foot irrigation of cucumber seedling in plastic cup, cotton aphids inoculated after seven days; conditions: 144 h; 500 ppm, 5 ml plant foot irrigation, plastic cup; aphids inoculated after seven days at 25° C., counted six days after; read-out: Control value
Experimental: (§1) The formulations were diluted with water so that the concentration of the active ingredient became 500 ppm and thus test diluents were prepared. On the other hand, a plant foot of cucumber seedling (second true leaf development stage) planted in a plastic cup was irrigated with any one of diluents (5 ml). The seedling was kept in a green house of 25° C. for seven days. The cucumber leaves were inoculated with 30 cotton aphids (all stages) and kept in the green house for further six days. Thereafter, the number of survived cotton aphids parasitic on the cucumber leaves was counted, and the control value was calculated by the following equation. Control value(%)={1−(Cb×Tai)/(Cai×Tb)}×100 wherein each character represents the following meaning: Cb: number of insects in non-treated section before treatment Cai: number of insects in non-treated section during observation Tb: number of insects in treated section before treatment Tai: number of insects in treated section during observation

tobacco whitefly = assay: Test Example 4: test diluent scattered on tomato seedling with hatched tobacco whitefly larvae; conditions: 168 h; 500 ppm, 10 ml/cup scattered on tomato seedling at larvae stage, counted after seven days at 25° C.; read-out: Control value
Experimental: The formulations were diluted with water so that the concentration of the active ingredient became 500 ppm and thus test diluents were prepared. On the other hand, by releasing tobacco whitefly imagos to a tomato seedling planted in a plastic cup to allow them to lay eggs for about 24 hours. The tomato seedling was kept in a green house for eight days. At the stage in which larvae hatched from the laid eggs, any of the test diluents was scattered at the rate of 10 ml/cup. The tomato seedling was kept in the greenhouse at 25° C. for seven days. The number of survived larvae on tomato leaves was counted, and the control value was calculated by the following equation. Control value(%)={1−(Cb×Tai)/(Cai×Tb)}×100 wherein each character represents the following meaning: Cb: number of insects in non-treated section before treatment Cai: number of insects in non-treated section during observation Tb: number of insects in treated section before treatment Tai: number of insects in treated section during observation

cotton aphids [4] = assay: Test Example 2: plant foot irrigation of cucumber seedling in urethane mat, cotton aphids inoculated one day after treatment; conditions: 168 h; 500 ppm, 5 ml plant foot irrigation, urethane mat; aphids inoculated one day after treatment, counted seven days after; read-out: Control value
Experimental: as §1, with “urethane mat” for “plastic cup”, “One day after the treatment, the” for “The seedling was kept in a green house of 25° C. for seven days. The”, “stages). Further seven days after,” for “stages) and kept in the green house for further six days. Thereafter,”

[5] = system: cotton aphids (Aphis gossypii Glover); assay: Test Example 1: test diluent scattered on cucumber seedling inoculated with cotton aphids; conditions: 120 h, 500 ppm active ingredient, 10 ml scattered on cucumber seedling, counted five days after scattering, read-out: Control value
Experimental: The formulations were diluted with water so that the concentration of the active ingredient became 500 ppm and thus test diluents were prepared. On the other hand, a cucumber seedling (second true leaf development stage) planted in a plastic cup was inoculated with about 30 cotton aphids (Aphis gossypii Glover) and allowed to stand for one day. To the seedling, any one of the diluents (10 ml) was scattered. Five days after the scattering, the number of survived cotton aphids parasitic on the cucumber leaves was counted, and the control value was calculated by the following equation. Control value(%)={1−(Cb×Tai)/(Cai×Tb)}×100 wherein each character represents the following meaning: Cb: the number of insects in non-treated section before treatment Cai: the number of insects in non-treated section during observation Tb: the number of insects in treated section before treatment Tai: the number of insects in treated section during observation

SMILES	pest or weed control at 500 ppm (rice brown planthopper [1])	pest or weed control at 500 ppm (rice brown planthopper [2])	pest or weed control at 500 ppm (cotton aphids [3])	pest or weed control at 500 ppm (tobacco whitefly)	pest or weed control at 500 ppm (cotton aphids [4])	pest or weed control at 500 ppm [5]
FC(F)(F)c1cnc2oc(-c3ccncc3Cl)nc2c1 [Active Compound 139, 2-(3-chloropyridin-4-yl)-6-(trifluoromethyl)oxazolo[5,4-b]pyridine]	≥ 90%	≥ 90%	–	–	–	–
FC(F)(F)c1cnc2oc(-c3ccncc3C(F)(F)F)nc2c1 [Active Compound 144, 6-trifluoromethyl-2-[3-(trifluoromethyl)pyridin-4-yl]-oxazolo[5,4-b]pyridine]	–	–	≥ 90%	–	–	–
COc1cnccc1-c1nc2cc(C(F)(F)F)cnc2o1 [Active Compound 145, 2-(3-methoxypyridin-4-yl)-6-(trifluoromethyl)oxazolo[5,4-b]pyridine]	–	–	≥ 90%	–	–	–
CCCc1ccc2oc(-c3ccncc3)nc2c1 [active compound 1, 5-propyl-2-(pyridin-4-yl)-benzoxazole]	–	≥ 90%	–	≥ 90%	–	–
CC(C)(C)c1ccc2nc(-c3ccncc3)oc2c1 [active compound 8, 6-tert-butyl-2-(pyridin-4-yl)-benzoxazole]	–	≥ 90%	–	≥ 90%	–	–
[O-][n+]1ccc(-c2nc3cc(C(F)(F)F)ccc3o2)c(Cl)c1 [active compound 19, 3-chloro-4-[5-(trifluoromethyl)benzoxazole-2-yl]pyridine N-oxide]	–	–	≥ 90%	–	≥ 90%	–
Cc1c[n+]([O-])ccc1-c1nc2cc(C(F)(F)F)ccc2o1 [active compound 24, 3-methyl-4-[5-(trifluoromethyl)benzoxazole-2-yl]pyridine N-oxide]	≥ 90%	–	≥ 90%	–	–	–
Fc1cnccc1-c1nc2cc(C(F)(F)F)ccc2o1 [active compound 25, 2-(3-fluoropyridin-4-yl)-5-(trifluoromethyl)benzoxazole]	≥ 90%	–	≥ 90%	–	–	–
FC(F)(F)c1ccc2oc(-c3ccncc3-c3ccccc3)nc2c1 [active compound 32, 2-(3-phenylpyridin-4-yl)-5-(trifluoromethyl)benzoxazole]	–	≥ 90%	–	–	–	–
C#Cc1cnccc1-c1nc2cc(C(F)(F)F)ccc2o1 [active compound 34, 2-(3-ethynylpyridin-4-yl)-5-(trifluoromethyl)benzoxazole]	–	≥ 90%	–	≥ 90%	–	≥ 90%
FC(F)(F)CSc1cnccc1-c1nc2cc(C(F)(F)F)ccc2o1 [active compound 46, 2-[3-(2,2,2-trifluoroethylthio)pyridin-4-yl]-5-(trifluoromethyl)benzoxazole]	≥ 90%	≥ 90%	–	≥ 90%	–	≥ 90%
Cc1cnn(-c2cnccc2-c2nc3cc(C(F)(F)F)ccc3o2)c1 [active compound 61, 2-[3-(4-methylpyrazole-1-yl)pyridin-4-yl]-5-(trifluoromethyl)benzoxazole]	–	≥ 90%	–	–	–	≥ 90%
FC(F)(F)C(F)(c1ccc2oc(-c3ccncc3)nc2c1)C(F)(F)F [active compound 67, 2-(pyridin-4-yl)-5-(heptafluoroisopropyl)benzoxazole]	–	≥ 90%	–	–	–	–
COc1cnccc1-c1nc2cc3c(cc2o1)C(F)(F)OC3(F)F [active compound 88, 5,5,7,7-tetrafluoro-2-(3-methoxypyridin-4-yl)-5,7-dihydro-furo[3′,4′:4,5]benzo[1,2-d]oxazole]	–	≥ 90%	–	≥ 90%	≥ 90%	≥ 90%
FC(F)(F)COc1cnccc1-c1nc2cc3c(cc2o1)C(F)(F)OC3(F)F [active compound 89, 5,5,7,7-tetrafluoro-2-[3-(2,2,2-trifluoroethoxy)pyridin-4-yl]-5,7-dihydro-furo[3′,4′:4,5]benzo[1,2-d]oxazole]	–	≥ 90%	–	≥ 90%	–	≥ 90%
CC(C)Oc1cnccc1-c1nc2cc3c(cc2o1)C(F)(F)OC3(F)F [active compound 97, 5,5,7,7-tetrafluoro-2-(3-isopropoxypyridin-4-yl)-5,7-dihydro-furo[3′,4′:4,5]benzo[1,2-d]oxazole]	≥ 90%	≥ 90%	–	≥ 90%	–	≥ 90%
CCc1cnccc1-c1nc2cc3c(cc2o1)C(F)(F)OC3(F)F [active compound 98, 2-(3-ethylpyridin-4-yl)-5,5,7,7-tetrafluoro-5,7-dihydro-furo[3′,4′:4,5]benzo[1,2-d]oxazole]	≥ 90%	≥ 90%	–	≥ 90%	–	≥ 90%
CC(C)(C)c1ccc2oc(-c3ccncc3C(F)(F)F)nc2c1 [active compound 107, 5-tert-butyl-2-(3-trifluoromethylpyridin-4-yl)benzoxazole]	≥ 90%	≥ 90%	–	≥ 90%	≥ 90%	–
CCOCCOc1cnccc1-c1nc2cc(C(F)(F)F)ccc2o1 [active compound 122, 2-[3-(2-ethoxyethoxy)pyridin-4-yl]-5-(trifluoromethyl)benzoxazole]	–	≥ 90%	–	≥ 90%	–	≥ 90%
CCCCCOc1cnccc1-c1nc2cc(C(F)(F)F)ccc2o1 [active compound 123, 2-(3-pentyloxypyridin-4-yl)-5-(trifluoromethyl)benzoxazole]	–	≥ 90%	–	≥ 90%	–	–
CS(=O)(=O)c1cnccc1-c1nc2cc(C(F)(F)F)ccc2o1 [active compound 135, 2-[3-(methanesulfonyl)pyridin-4-yl]-5-(trifluoromethyl)benzoxazole]	–	–	≥ 90%	–	–	–
FC(F)(F)c1cnc2oc(-c3ccncc3)nc2c1 [active compound 138, 2-pyridin-4-yl-6-(trifluoromethyl)oxazolo[5,4-b]pyridine]	–	≥ 90%	–	–	–	–
